Literature values, collected in US12383593B2, “Organic pain relief and hair growth composition” (The Tao Talit Corporation, priority 2021, dated 2025).

How the values were obtained:
orofacial nociception = conditions: in comparison with S. lavandulifolia essential oil
[1] = system: MAPKs and the NF-κB pathway; conditions: mouse peritoneal macrophages
[2] = system: capsaicin irritancy, sprains, heat hypersensitivity and headaches

## CC(C)=CCCC(C)(O)C1CC=C(C)CC1 (stereo not drawn) [(−)-α-bisabolol, 6-methyl-2-(4-methylcyclohex-3-en-1-yl)-hept-5-en-2-ol]
ethanol
  solubility in ethanol: soluble
Water and glycerin
  solubility in water and glycerin: poorly soluble
Orofacial nociception
  antinociceptive effect in the pain models: stronger effect

## CC1=CCC2CC1C2(C)C (stereo not drawn) [Alpha-pinene, α-pinene]
[1]
  anti-inflammatory activity: anti-inflammatory activity through the suppression of mitogen-activated protein kinases (MAPKs) and the nuclear factor-kappa B (NF-κB) pathway

## C=C1C2CCC(C2)C1(C)C (stereo not drawn) [Camphene]
other
  solubility in organic solvents: very soluble
  solubility in water: nearly insoluble

## C=C(C)[C@H]1CC=C(C)CC1 [limonene, Limonene]
Lymphoma cell line; lymphoma cell line
  action on a lymphoma cell line: anti-proliferative action
Lymphoma cell line; normal lymphocytes
  normal lymphocyte viability: without modifying normal lymphocyte viability

## CC1CCC(C(C)C)C(O)C1 (stereo not drawn) [menthol, Menthol]
[2]; high concentrations, topical use or intraplantar injection
  cold allodynia and hyperalgesia: generated cold allodynia and hyperalgesia
[2]; low to moderate concentrations, topical
  analgesic effect of topically applied menthol: inhibit capsaicin irritancy, sprains, heat hypersensitivity and headaches

## Cc1ccc(C(C)C)cc1 [p-Cymene]
other
  solubility in organic solvents: miscible
  solubility in water: insoluble
